# Experimental data taken from US4029801A, “Pharmaceutical compositions and methods of treating hypertension” (priority 1970, dated 1977).
# Like-named read-outs stand apart in the source and are kept apart here.
# Tests used:
# [1] = tested on: blood pressure and heart rate; test: Method 1 (rat): hypotensive activity in anaesthetised rats, i.v.; details: for minimal effective dose: Rattus norvegicus, iv
# Description: Rats were anaesthetised with pentobarbitone sodium (60 mg/kg) and the jugular vein, trachea and carotid artery were cannulated. […] A decrease in heart rate of more than 30% from control values was considered to be significant bradycardia.
# blood pressure = test: Tests for action on the cardiovascular system: hypotensive activity (activity in method 1, rats or cats, or method 2), reported in words; format: in vivo, rat, cat; details: standard test procedure, result in words
# Summary of the method: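 Method 1: pentobarbitone-anaesthetised cats, test compounds i.v. at 0.1-25.6 mg/kg, aortic blood pressure, heart rate and left ventricular pressure recorded. Method 2: renal hypertensive rats (figure-8 ligature plus contralateral nephrectomy, 6 weeks), dosed IP or orally; systolic pressure by tail plethysmography before and 2 and 24 h post-dose versus controls.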
# systolic pressure = test: Method 2: anti-hypertensive activity in renal hypertensive rats; format: in vivo, rat
# Description: Method 2 (hypertensive rats)
# Male or female rats are rendered hypertensive by applying a figure of 8 ligature around one kidney and contralateral nephrectomy. Blood pressure stabilises at a hypertensive level after 6 weeks. Systolic pressure is measured indirectly using a Decker Caudal Plethysmograph A control group of rats is run with each group treated with drug. Each group usually consists of six rats. Drugs are usually administered by the IP or oral routes. Pressures are read prior to drug administration and at two and 24 hours thereafter.
# Falls in systolic blood pressure 2 hr after an oral dose of 40 mg/kg: >50
# mm, +++; 50-30 mm, ++; 30-15 mm, +; <15 mm, ±. g Oral dose of 75 mg/kg
# h Oral dose of 10 mg/kg. i Oral dose of 2.5 mg/kg.
# Antiarrhythmic activity = details: result in words
# histamine = target: T1, histamine (Cavia porcellus, UniProt P31389); test: Antihistamine activity by the method of Alps et al.; details: for antihistamine activity: result in words
# T1 construct: from tissue
# α-adrenoceptor = test: α-Adrenoceptor antagonism on the guinea pig aortic strip; details: for α-adrenoceptor antagonism: result in words; for α-blockade pA2: Table 4
# From the text: Carried out on the guinea pig aortic strip [Furchgott and Bhadrakom (1953) J. Pharmac. exp. Ther. 108, 129-143] by the method of Alps et al [Br. J. Pharmac. 1972 44, 52-62].
# [2] = tested on: blood pressure and heart rate; test: Method 1 (cat): blood pressure, heart rate and left ventricular pressure in anaesthetised cats, i.v.; format: in vivo; details: 3.2 mg/kg
# Description: Cats were anaesthetised with pentobarbitone sodium (30 mg/kg) and the cephalic vein, femoral and carotid arteries and trachea were cannulated. The carotid cannula was introduced into the left ventricle and the femoral cannula into the aorta. Blood pressure and heart rate were recorded from the aortic cannula and left ventricular pressure from the carotid cannula. The test compunds were administered intravenously (0.1-25.6 mg/kg).
# [3] = Acute toxicity (LD50) in the mouse; details: in vivo
# mouse = test: Acute toxicity (LD50) in the mouse; details: result in words
# Anti-convulsant activity = format: in vivo; details: result in words
# oxotremorine = test: Antioxotremorine activity; format: in vivo; details: result in words
# [4] = 0.25 h, read-out: Hypotensive Activity
# [5] = Table 4, read-out: Antihistamine pA2 (converted)
# T1 sequence (P31389 whole entry): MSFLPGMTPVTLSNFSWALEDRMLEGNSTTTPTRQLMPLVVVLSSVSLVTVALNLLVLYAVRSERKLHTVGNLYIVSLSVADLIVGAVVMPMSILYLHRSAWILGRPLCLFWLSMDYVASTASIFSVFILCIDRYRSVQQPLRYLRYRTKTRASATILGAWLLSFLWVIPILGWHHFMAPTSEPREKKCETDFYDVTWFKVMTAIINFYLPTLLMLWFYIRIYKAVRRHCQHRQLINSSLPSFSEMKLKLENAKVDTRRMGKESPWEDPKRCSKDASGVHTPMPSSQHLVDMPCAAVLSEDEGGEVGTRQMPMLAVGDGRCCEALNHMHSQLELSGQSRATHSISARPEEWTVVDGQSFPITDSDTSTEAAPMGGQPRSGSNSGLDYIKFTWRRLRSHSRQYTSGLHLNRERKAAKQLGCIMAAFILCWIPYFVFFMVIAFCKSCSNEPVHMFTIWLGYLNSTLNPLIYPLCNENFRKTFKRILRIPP
SMILES,"minimal effective dose [1, 4] [mg/kg]",hypotensive activity (blood pressure),Kb (histamine; [5]) [pM],antihistamine activity (histamine),α-adrenoceptor antagonism (α-adrenoceptor),α-blockade pA2 (α-adrenoceptor),anti-convulsant activity (Anti-convulsant activity),further results
"O=C(CCCN1CCC(NC(=O)c2ccccc2)CC1)c1ccccc1 [Example 43, 4-Benzamido-1-(4-phenyl-4-oxobutyl)piperidine]",0.8,marked hypotensive activity,251,antihistamine,α-adrenoceptor antagonist,–,–,"minimal effective dose ([1]; read-out: Significant hypotension (dose; fall of 30 mm mercury or more in diastolic pressure)): 0.8 to 1.6 mg/kg; Significant bradycardia (dose; decrease in heart rate of more than 30%) ([1]; anaesthetised rat, i.v., cumulative dose): 0.8 to 1.6 mg/kg; Anti-hypertensive Activity (systolic pressure; Table 3, fall in systolic blood pressure 2 hr after oral dose of 40 mg/kg): + ++; Pressure reduced to (systolic pressure; hypertensive rat, 40 mg/kg p.o., from 174 mmHg): 122 mmHg; antiarrhythmic activity (Antiarrhythmic activity): antiarrythmic activities; Kb (histamine; pA2 (antihistamine activity), Table 2): 316 pM; pA2 (α-adrenoceptor antagonism) (α-adrenoceptor; guinea pig aortic strip): 7.7; Significant lowering of blood pressure [2]: 52 mmHg; cardiac effort index [2]: lowered; cardiac output [2]: lowered; heart rate lowered [2]: 35%; myocardial contractile force decreased [2]: 33%"
"O=C(CCCN1CCC(NC(=O)c2ccccc2)CC1)c1ccc(O)cc1 [Example 63, 4-Benzamido-1-[4-(4-hydroxyphenyl)-4-oxobutyl]piperidine]",25.6,good hypotensive activity,1260,–,α-adrenoceptor antagonism,7.0,–,LD50 ([3]; ip): 1630 mg/kg; LD50 at 24 h ([3]; ip): > 4000 mg/kg; LD50 ([3]; po): > 4000 mg/kg; toxicity (mouse): remarkably low toxicity
"O=C(NC1CCN(CCc2ccc(Cl)cc2)CC1)c1ccccc1 [Example 48, 4-Benzamido-1-[2-(p-chlorophenyl)ethyl]piperidine]",6.4 to 12.8,hypotensive activity,–,–,–,–,anti-convulsant activity,–
"O=C(NC1CCN(CC(O)c2ccccc2)CC1)c1ccccc1 (stereo not shown) [Example 20, 1-(2-Hydroxy-2-phenylethyl)-4-benzamidopiperidine]",6.4 to 12.8,hypotensive activity,–,antihistamine,–,6.6,–,antioxotremorine activity (oxotremorine): antioxotremorine activity
"O=C(NC1CCN(CC(O)c2ccc(Cl)c(Cl)c2)CC1)c1ccccc1 (stereo not shown) [Example 36, 1-[2-(3,4-Dichlorophenyl)-2-hydroxyethyl]-4-benzamidopiperidine]",< 30,hypotensive,–,–,–,–,anti-convulsant activities,–
